Experimental findings from patent US12661342B2, “Heteroaryl compounds and therapeutic uses thereof in conditions associated with the alteration of the activity of beta-glucocerebrosidase” (GT GAIN THERAPEUTICS SA, priority 2019, dated 2026) are described below.

The assay addresses T1, β-glucocerebrosidase (Homo sapiens, UniProt P04062, L483P).
T1 construct: host or cells: human Gaucher disease patient fibroblasts GM08760A
T1 sequence (P04062 40-536 L483P): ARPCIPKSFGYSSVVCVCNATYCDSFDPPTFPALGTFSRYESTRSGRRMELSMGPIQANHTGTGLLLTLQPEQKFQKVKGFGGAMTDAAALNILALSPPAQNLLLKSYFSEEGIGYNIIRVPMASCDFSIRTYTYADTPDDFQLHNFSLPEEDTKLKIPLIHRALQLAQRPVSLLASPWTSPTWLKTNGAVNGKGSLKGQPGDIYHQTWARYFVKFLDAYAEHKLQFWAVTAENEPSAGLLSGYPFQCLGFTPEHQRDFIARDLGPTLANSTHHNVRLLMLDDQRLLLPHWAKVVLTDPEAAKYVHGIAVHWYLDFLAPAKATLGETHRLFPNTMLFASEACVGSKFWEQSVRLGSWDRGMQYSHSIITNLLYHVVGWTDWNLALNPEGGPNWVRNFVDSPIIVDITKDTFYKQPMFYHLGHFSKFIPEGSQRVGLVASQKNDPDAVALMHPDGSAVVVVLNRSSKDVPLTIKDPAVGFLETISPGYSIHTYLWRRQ
In words: Enhancement of β-glucocerebrosidase activity measured in Gaucher disease fibroblasts (4-MU-β-D-glucopyranoside substrate, intact cells). Format: cell-based. Further details: key: Increase in comparison with non-treated of >2.0 fold is shown as A; Increase in comparison with non-treated of >1.7-2.0 fold is shown as B; Increase in comparison with non-treated of 1.2-1.7 fold is shown as C; D means that no increase compared with non-treated cells was detected in this method. Conditions: GBA fibroblasts bearing L444P (GM08760A, homozygous p.L444P); compound at concentrations between 6 and 50 μM; 4 days incubation. On the procedure: Human fibroblasts from a patient with Gaucher disease homozygous for p.L444P mutation (GM08760A) were purchased from Coriell Institute for Medical Research (Camden, NJ, USA).
Fibroblasts were seeded at 5×10^3 cells per well in 96-well cell culture plates (Corning, NY, USA) in Dulbecco's Modified Eagle's Media (DMEM) supplemented with 10% of fetal bovine serum (FBS), 1% penicillin/streptomycin (P/S) (Thermo Fisher Scientific, Waltham, MA, USA) and grown at 37° C., 5% CO2 overnight for cell attachment. Subsequently, cells were incubated in the absence or presence of the compounds at the desired concentration for 4 days. After incubation, cells were washed twice with phosphate-buffered saline (PBS) and enzyme activity assay was performed.
β-glucocerebrosidase activity in intact cultured cells was measured by using 4-methylumbelliferyl-β-D-glucopyranoside substrate (Apollo Scientific, UK). Briefly, cells were incubated with 4-MU-β-D-glucopyranoside in 0.1 M acetate buffer pH=4 at 37° C. for 1 hour. The reaction was stopped by adding 200 μL at 100 mM glycine-NaOH pH=10.7. The liberated 4-MU was measured on a GloMax Discover plate reader (Promega, Madison, WI, USA) with and excitation at 340 nm and emission at 460 nm. Enzyme activities were expressed in treated cells as X-fold increase in comparison with non-treated cells (X=1 represents no enhancement).
The capacity of the compounds of the disclosure to produce an increase in enzyme activity in GBA fibroblasts bearing L444P at concentrations between 6 and 50 μM is denoted as follows: • Increase in comparison with non-treated of >2.0 fold is shown as A • Increase in comparison with non-treated of >1.7-2.0 fold is shown as B • Increase in comparison with non-treated of 1.2-1.7 fold is shown as C • D means that no increase compared with non-treated cells was detected in this method • ND means “not determined”

`Nc1cc(Nc2ccccc2F)nc(C(=O)N2CCN(c3ccccc3)CC2)c1` [Example 48, (4-Amino-6-((2-fluorophenyl)amino)pyridin-2-yl)(4-phenylpiperazin-1-yl)methanone]: the “Range: increase in enzyme activity in comparison with non-treated cells (Enzyme activity assay for compounds of Examples 33-141)” value is listed as “C (Increase in comparison with non-treated of 1.2-1.7 fold is shown as C)”.

As to `Nc1cc(Nc2ccccc2O)cc(C(=O)N2CCc3ccccc3C2)n1` [Example 49, (6-Amino-4-((2-hydroxyphenyl)amino)pyridin-2-yl)(3,4-dihydroisoquinolin-2(1H)-yl)methanone], the “Range: increase in enzyme activity in comparison with non-treated cells (Enzyme activity assay for compounds of Examples 33-141)” value is “B (Increase in comparison with non-treated of >1.7-2.0 fold is shown as B)”. Take `COc1ccccc1Nc1cc(N)nc(C(=O)N(C)c2ccccc2)c1` [Example 50, 6-Amino-4-((2-methoxyphenyl)amino)-N-methyl-N-phenylpicolinamide]: the “Range: increase in enzyme activity in comparison with non-treated cells (Enzyme activity assay for compounds of Examples 33-141)” value is listed as “D”. On to `COc1ccccc1Nc1cc(N)nc(C(=O)N2CCN(c3ccccc3)CC2)c1` [Example 51, (6-Amino-4-((2-methoxyphenyl)amino)pyridin-2-yl)(4-phenylpiperazin-1-yl)methanone], for which the “Range: increase in enzyme activity in comparison with non-treated cells (Enzyme activity assay for compounds of Examples 33-141)” value is “C (Increase in comparison with non-treated of 1.2-1.7 fold is shown as C)”. Take `COc1ccccc1Nc1cc(N)nc(C(=O)NC2CCc3ccccc3C2)c1` (stereo not shown) [Example 52, 6-Amino-4-((2-methoxyphenyl)amino)-N-(1,2,3,4-tetrahydronaphthalen-2-yl)picolinamide]: the “Range: increase in enzyme activity in comparison with non-treated cells (Enzyme activity assay for compounds of Examples 33-141)” value is on record as “B (Increase in comparison with non-treated of >1.7-2.0 fold is shown as B)”.

As for `COc1ccccc1Nc1cc(N)nc(C(=O)Nc2ccccc2)c1` [Example 53, 6-Amino-4-((2-methoxyphenyl)amino)-N-phenylpicolinamide], the “Range: increase in enzyme activity in comparison with non-treated cells (Enzyme activity assay for compounds of Examples 33-141)” value is reported as “C (Increase in comparison with non-treated of 1.2-1.7 fold is shown as C)”. Turning to `COc1ccccc1Nc1cc(N)cc(C(=O)NC2Cc3ccccc3C2)n1` [Example 54, 4-Amino-N-(2,3-dihydro-1H-inden-2-yl)-6-((2-methoxyphenyl)amino)picolinamide], the “Range: increase in enzyme activity in comparison with non-treated cells (Enzyme activity assay for compounds of Examples 33-141)” value was “C (Increase in comparison with non-treated of 1.2-1.7 fold is shown as C)”. `Nc1cc(Nc2ccccc2O)nc(C(=O)NC2Cc3ccccc3C2)n1` [Example 56, 4-Amino-N-(2,3-dihydro-1H-inden-2-yl)-6-((2-hydroxyphenyl)amino)pyrimidine-2-carboxamide]: the “Range: increase in enzyme activity in comparison with non-treated cells (Enzyme activity assay for compounds of Examples 33-141)” value is reported as “B (Increase in comparison with non-treated of >1.7-2.0 fold is shown as B)”.

In the case of `Nc1cc(Nc2ccccc2O)cc(C(=O)N2Cc3ccccc3C2)n1` [Example 58, (6-Amino-4-((2-hydroxyphenyl)amino)pyridin-2-yl)(isoindolin-2-yl)methanone], the “Range: increase in enzyme activity in comparison with non-treated cells (Enzyme activity assay for compounds of Examples 33-141)” value is reported as “B (Increase in comparison with non-treated of >1.7-2.0 fold is shown as B)”. With `COc1ccccc1Nc1cc(N)nc(C(=O)N2Cc3ccccc3C2)c1` [Example 59, (6-Amino-4-((2-methoxyphenyl)amino)pyridin-2-yl)(isoindolin-2-yl)methanone], the “Range: increase in enzyme activity in comparison with non-treated cells (Enzyme activity assay for compounds of Examples 33-141)” value is given as “C (Increase in comparison with non-treated of 1.2-1.7 fold is shown as C)”.

For `Nc1cc(Nc2ccccc2Cl)cc(C(=O)N2CCN(c3ccccc3)CC2)n1` [Example 60], the “Range: increase in enzyme activity in comparison with non-treated cells (Enzyme activity assay for compounds of Examples 33-141)” value is on record as “C (Increase in comparison with non-treated of 1.2-1.7 fold is shown as C)”. With `Nc1cc(Nc2ccccc2O)cc(C(=O)N2CCN(c3ccccc3)CC2)n1` [Example 61, (6-Amino-4-((2-hydroxyphenyl)amino)pyridin-2-yl)(4-phenylpiperazin-1-yl)methanone], the “Range: increase in enzyme activity in comparison with non-treated cells (Enzyme activity assay for compounds of Examples 33-141)” value was “C (Increase in comparison with non-treated of 1.2-1.7 fold is shown as C)”. `Nc1cc(Nc2ccccc2F)cc(C(=O)N2CCN(c3ccccc3)CC2)n1` [Example 62]: the “Range: increase in enzyme activity in comparison with non-treated cells (Enzyme activity assay for compounds of Examples 33-141)” value is given as “D”. `Nc1cc(Nc2ccccc2O)cc(C(=O)N2CCc3ccccc32)n1` [Example 64, (6-Amino-4-((2-hydroxyphenyl)amino)pyridin-2-yl)(indolin-1-yl)methanone]: the “Range: increase in enzyme activity in comparison with non-treated cells (Enzyme activity assay for compounds of Examples 33-141)” value is given as “C (Increase in comparison with non-treated of 1.2-1.7 fold is shown as C)”. Turning to `Nc1cc(Nc2ccccc2O)cc(C(=O)Nc2ccccc2)n1` [Example 65, 6-Amino-4-((2-hydroxyphenyl)amino)-N-phenylpicolinamide], the “Range: increase in enzyme activity in comparison with non-treated cells (Enzyme activity assay for compounds of Examples 33-141)” value is listed as “A (Increase in comparison with non-treated of >2.0 fold is shown as A)”. For `Nc1cc(Nc2ccccc2O)cc(C(=O)NC2Cc3ccccc3C2)n1` [Example 67, 6-Amino-N-(2,3-dihydro-1H-inden-2-yl)-4-((2-hydroxyphenyl)amino)picolinamide], the “Range: increase in enzyme activity in comparison with non-treated cells (Enzyme activity assay for compounds of Examples 33-141)” value was “B (Increase in comparison with non-treated of >1.7-2.0 fold is shown as B)”.

Take `Cc1ccc(Nc2cc(N)nc(C(=O)NC3Cc4ccccc4C3)c2)c(O)c1` [Example 68, 6-Amino-N-(2,3-dihydro-1H-inden-2-yl)-4-((2-hydroxy-4-methylphenyl)amino)picolinamide]: the “Range: increase in enzyme activity in comparison with non-treated cells (Enzyme activity assay for compounds of Examples 33-141)” value is on record as “C (Increase in comparison with non-treated of 1.2-1.7 fold is shown as C)”. With `Nc1cc(Nc2ccc(F)cc2O)cc(C(=O)NC2Cc3ccccc3C2)n1` [Example 69, 6-Amino-N-(2,3-dihydro-1H-inden-2-yl)-4-((4-fluoro-2-hydroxyphenyl)amino)picolinamide], the “Range: increase in enzyme activity in comparison with non-treated cells (Enzyme activity assay for compounds of Examples 33-141)” value is given as “B (Increase in comparison with non-treated of >1.7-2.0 fold is shown as B)”. For `Nc1cc(Nc2ccccc2F)cc(C(=O)NC2Cc3ccccc3C2)n1` [Example 70, 6-Amino-N-(2,3-dihydro-1H-inden-2-yl)-4-((2-fluorophenyl)amino)picolinamide], the “Range: increase in enzyme activity in comparison with non-treated cells (Enzyme activity assay for compounds of Examples 33-141)” value was “D”.

As to `Nc1cc(Nc2ccccc2F)nc(C(=O)NC2Cc3ccccc3C2)c1` [Example 71, 4-Amino-N-(2,3-dihydro-1H-inden-2-yl)-6-((2-fluorophenyl)amino)picolinamide], the “Range: increase in enzyme activity in comparison with non-treated cells (Enzyme activity assay for compounds of Examples 33-141)” value was “B (Increase in comparison with non-treated of >1.7-2.0 fold is shown as B)”. For `Nc1cc(Nc2ccccc2Cl)cc(C(=O)NC2Cc3ccccc3C2)n1` [Example 72, 6-Amino-4-((2-chlorophenyl)amino)-N-(2,3-dihydro-1H-inden-2-yl)picolinamide], the “Range: increase in enzyme activity in comparison with non-treated cells (Enzyme activity assay for compounds of Examples 33-141)” value is “D”. Regarding `Nc1cc(Nc2cccc3c2OCO3)cc(C(=O)Nc2ccccc2)n1` [Example 73, 6-Amino-4-(benzo[d][1,3]dioxol-4-ylamino)-N-phenylpicolinamide], the “Range: increase in enzyme activity in comparison with non-treated cells (Enzyme activity assay for compounds of Examples 33-141)” value is recorded as “C (Increase in comparison with non-treated of 1.2-1.7 fold is shown as C)”.
